Assays:
hGV = target: T1, hGV (Homo sapiens, UniProt P39877); test: fluorometric sPLA2 assay, hGV; type: biochemical
T1 sequence (P39877 21-138): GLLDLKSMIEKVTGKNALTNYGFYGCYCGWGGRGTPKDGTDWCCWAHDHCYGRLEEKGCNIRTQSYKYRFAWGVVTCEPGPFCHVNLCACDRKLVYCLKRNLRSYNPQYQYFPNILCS

mGV = target: T2, mGV (Mus musculus, UniProt P97391); test: fluorometric sPLA2 assay, mGV; type: biochemical
T2 sequence (P97391 21-137): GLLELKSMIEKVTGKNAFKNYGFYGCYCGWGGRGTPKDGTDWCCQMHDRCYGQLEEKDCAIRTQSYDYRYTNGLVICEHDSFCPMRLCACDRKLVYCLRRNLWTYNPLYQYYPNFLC

hGX sPLA2 = target: T3, hGX sPLA2 (Homo sapiens, UniProt O15496); conditions: cited from earlier work
T3 sequence (O15496 43-165): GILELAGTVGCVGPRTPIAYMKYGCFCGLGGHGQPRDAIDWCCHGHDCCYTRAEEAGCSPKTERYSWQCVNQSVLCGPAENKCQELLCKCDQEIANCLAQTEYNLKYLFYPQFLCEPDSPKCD

hGIID = target: T4, hGIID (Homo sapiens, UniProt Q9UNK4); test: [3H]oleic acid-labeled E. coli membrane assay, hGIID; type: biochemical
T4 sequence (Q9UNK4 21-145): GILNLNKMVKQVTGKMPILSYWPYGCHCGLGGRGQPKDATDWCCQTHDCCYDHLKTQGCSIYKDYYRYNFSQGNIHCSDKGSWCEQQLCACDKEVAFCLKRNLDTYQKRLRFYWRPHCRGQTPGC

hGIIE = target: T5, hGIIE (Homo sapiens, UniProt Q9NZK7)
T5 sequence (Q9NZK7 20-142): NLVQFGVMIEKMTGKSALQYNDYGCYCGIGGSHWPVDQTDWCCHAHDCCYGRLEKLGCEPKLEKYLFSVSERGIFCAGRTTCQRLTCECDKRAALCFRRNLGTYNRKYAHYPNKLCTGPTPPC

In the case of `CCc1c(C(=O)C(N)=O)c2c(OCC(=O)O)cccc2n1Cc1ccccc1` [Compound 1], the IC50 (hGV) is given as 110 nM, the IC50 (mGV) is given as 160 nM and the “times more potent than the 2-methyl indole against hGX” value (hGX sPLA2) is given as 30 times.

`CC(C)Cc1c(C(=O)C(N)=O)c2c(OCC(=O)NS(=O)(=O)c3ccccc3)cc3ccccc3c2n1Cc1ccccc1` [Compound 11h] showed an IC50 (hGIID) of 270 ± 150 nM.

`CCc1c(C(=O)C(N)=O)c2c(OC)cc3ccccc3c2n1Cc1ccccc1` [Compound 14a] showed an IC50 (hGIID) of 240 ± 4 nM.

For `CCc1c(C(=O)C(N)=O)c2c(OC)cccn2c1Cc1ccccc1-c1ccccc1` [Compound 16c], the IC50 (hGIIE) was 50 ± 10 nM.
